As a reminder, the IC50 is the midpoint of a concentration-inhibition curve. A high value points to weaker potency in that assay.

This test has as its target T1, human O-GlcNAc-β-N-acetylglucosaminidase (OGA) (Homo sapiens, UniProt O60502).
T1 construct: poly-histidine (HIS) tag (N); made in house; host or cells: Sf9 insect cells (Bac-to-Bac baculovirus, pFastBac1)
T1 sequence (O60502 1-916): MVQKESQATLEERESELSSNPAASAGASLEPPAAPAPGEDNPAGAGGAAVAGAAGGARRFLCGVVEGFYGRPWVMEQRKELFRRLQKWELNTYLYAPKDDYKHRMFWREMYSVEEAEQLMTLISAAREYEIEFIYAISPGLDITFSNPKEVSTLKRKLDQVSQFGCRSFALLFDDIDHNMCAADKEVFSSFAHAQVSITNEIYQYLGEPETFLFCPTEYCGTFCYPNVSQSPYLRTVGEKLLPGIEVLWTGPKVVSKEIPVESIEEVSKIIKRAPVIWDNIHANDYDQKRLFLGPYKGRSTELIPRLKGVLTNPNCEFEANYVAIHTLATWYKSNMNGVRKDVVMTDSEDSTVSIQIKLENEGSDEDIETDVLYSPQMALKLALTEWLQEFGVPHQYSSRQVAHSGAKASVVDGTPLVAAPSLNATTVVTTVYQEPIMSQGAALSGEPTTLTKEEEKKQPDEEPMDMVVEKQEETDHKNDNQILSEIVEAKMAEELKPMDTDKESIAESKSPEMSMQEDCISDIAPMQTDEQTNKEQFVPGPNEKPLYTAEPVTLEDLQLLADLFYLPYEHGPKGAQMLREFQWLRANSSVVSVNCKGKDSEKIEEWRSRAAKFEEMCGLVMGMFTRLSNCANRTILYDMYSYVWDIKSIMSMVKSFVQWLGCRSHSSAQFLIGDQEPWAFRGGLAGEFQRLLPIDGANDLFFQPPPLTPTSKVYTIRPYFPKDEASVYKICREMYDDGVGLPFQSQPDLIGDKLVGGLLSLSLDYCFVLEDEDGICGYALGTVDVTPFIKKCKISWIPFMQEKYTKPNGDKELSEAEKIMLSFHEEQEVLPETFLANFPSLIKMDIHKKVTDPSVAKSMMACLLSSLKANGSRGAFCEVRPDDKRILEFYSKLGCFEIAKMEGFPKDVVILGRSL
Put plainly: In Vitro Human OGA Enzyme Assay. The conditions noted are these: FD-GlcNAc substrate 6.7 μM; 30 min pre-incubation with OGA enzyme; 60 min at room temperature; pH 7; n=3. In kind it is biochemical. As to the method:
In Vitro Human OGA Enzyme Assay
The nucleotide sequence encoding full-length human O-GlcNAc-β-N-acetylglucosaminidase (NM_012215) is inserted into pFastBac1 (Invitrogen) vector with an N-terminal poly-histidine (HIS) tag. Baculovirus generation is carried out according to the Bac-to-Bac Baculovirus Expression system (Invitrogen) protocol. Sf9 cells are infected at 1.5×10^6 cells/mL using 10 mL of P1 virus per Liter of culture and incubated at 28° C. for 48 hrs. Cells are spun down, rinsed with PBS and the pellets stored at −80° C. […]
Resin is then packed onto column and washed with 50 mM Tris, pH 8.0, 300 mM NaCl, 10% glycerol, 10 mM imidazole, 0.1% Triton™ X-100, 1 mM DTT, followed by 50 mM Tris, pH 8.0, 150 mM NaCl, 10 mM imidazole, 10% glycerol, 1 mM DTT. […] Fractions containing His-OGA are pooled and protein concentration measured with BCA ([…]).
The OGA enzyme catalyses the removal of O-GlcNAc from nucleocytoplasmic proteins. […] This fluorogenic substrate becomes fluorescent upon cleavage by OGA, so that the enzyme activity can be measured by the increase in fluorescence detected at 535 nm (excitation at 485 nm).
The assay buffer is prepared to give a final concentration of 50 mM […], 0.01% bovine serum albumin and 0.01% Triton™ X-100 in water, at pH 7. […] Then, without stopping the reaction, fluorescence is read. […]

`CC(=O)Nc1nc(F)c(CN2CC[C@H](Oc3cnc(C#N)cn3)C[C@@H]2C)s1` [Example 1, N-[5-[[(2S,4S)-4-(5-cyanopyrazin-2-yl)oxy-2-methyl-1-piperidyl]methyl]-4-fluoro-thiazol-2-yl]acetamide] returned an IC50 of 0.343 nM.

The record behind these values is US11999726B2, “5-methyl-4-fluoro-thiazol-2-yl compounds” (Eli Lilly and Company, priority 2018, dated 2024).
